Patent US20110281728A1, “METHOD FOR CONTROLLING COLORATION IN TABLE GRAPES BASED ON OLIGOGALACTURONIDES” (CENTRO DE INVESTIGACION EN ALIMENTACION Y DESARROLLO A.C., priority 2008, published 2011)
Marks after values point to notes of the source that are not given here.

Tested on: red table grapes
Assay: Grape color in Color Index units for Red Grapes (CIRG) after application to grape plants
Type: in vivo, Vitis vinifera
Conditions: 500 ppm
Protocol: Control of coloration by means of OGAs determines a new use of these polymers which ensure a controlled ripening and effective coloring, which provide a high quality in table grapes. OGAs were obtained by enzymatic hydrolysis of polygalacturonic acid (PGA), stopping the reaction by heating to 100° C. for 30 minutes. Partial purification was performed by using an ultra-filtration equipment to recover OGAs in the range of 5-10 KDa. For the comparison of the degree of polymerization of 7-20 GP, these were compared with external standards. OGAs were frozen using liquid nitrogen in order to obtain a powdered mixture, which was applied to grape plants in a particular proportion. Six treatments were used: three using different concentrations of OGAs, methyl jasmonate (MeJa), Ethrel and a control (water).
To determine the best way to control the red color in grapes, a series of experiments was performed, wherein doses of the mixture, application times, application conditions, and periods of application were tested, finding that the results are obtained: when the mixture was applied in an amount of 0.25 L per plant during the morning at a temperature of 18-20° C. for a period of two days during the veraison period.

Compound	grape color (CIRG) (1 day post-application)	grape color (CIRG) (5 days post-application)	grape color (CIRG) (10 days post-application)	grape color (CIRG) (15 days post-application)	grape color (CIRG) (20 days post-application)
CC/C=C\CC1C(=O)CCC1CC(=O)OC (stereo not shown) [MeJa, methyl jasmonate]	1.13^a CIRG	2.20^a CIRG	3.41^a CIRG	3.20^a CIRG	3.31^b CIRG
O=P(O)(O)CCCl [Ethrel, 2-chloroethyl phosphonic acid]	1.17^a CIRG	2.44^a CIRG	2.96^a CIRG	3.37^a CIRG	3.76^a CIRG
